From paper PMC10066365, “Nemacol is a small molecule inhibitor of C. elegans vesicular acetylcholine transporter with anthelmintic potential” (Nature Communications, 2023)
“And” between values parts separate entries of the source, which are not always exact repeats. Identical values can stand only once. Like-named read-outs stand apart in the source and are kept apart here.

Columns and labels:
[1] = tested on: Dirofilaria immitis L3/L4; experiment: Dirofilaria immitis L3/L4 motility assay (DiroImager, 72 h); settings: Dirofilaria immitis L4
[2] = tested on: C. elegans; experiment: C. elegans motor phenotype scoring on solid media (Punc/jerky-unc, coiled, paralyzed), wild-type young adults; format: in vivo, Caenorhabditis elegans; settings: for any phene (mean % fraction of young adults exhibiting any phenotype: coiled, jerky-Unc or paralyzed) / any phene, mean % fraction of young adults exhibiting any phenotype (coiled, jerky-Unc or paralyzed) / atypical locomotion (number of animals) / coiled (number of animals) / no phene (number of animals) / paralyzed (number of animals) / any phene: mean % fraction of young adults exhibiting any phenotype (coiled, jerky-Unc or paralyzed): one hour; for any phene (mean % fraction of young adults exhibiting any phenotype: coiled, jerky-Unc or paralyzed) / any phene, mean % fraction of young adults exhibiting any phenotype (coiled, jerky-Unc or paralyzed) / any phene: mean % fraction of young adults exhibiting any phenotype (coiled, jerky-Unc or paralyzed): mean of three biological replicates; for EC50: Caenorhabditis elegans, read-out: C. elegans - motor disruption EC50; for atypical locomotion (number of animals) / coiled (number of animals) / no phene (number of animals) / paralyzed (number of animals): young adults, 20 animals per trial
[3] = tested on: Dirofilaria immitis microfilariae; experiment: Dirofilaria immitis microfilariae immobility assay (DiroImager, 72 h); settings: Dirofilaria immitis microfilariae
In short: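 About 250 freshly purified microfilariae of the Missouri isolate per well in supplemented RPMI 1640, exposed to compound for 72 h. Motility scored by automated whole-plate optical imaging; medium with 1% DMSO as negative control.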

[4] = tested on: Pristionchus pacificus; experiment: Pristionchus pacificus motor disruption dose-response on solid media, 1 h; settings: for mean % any phene (coiled, jerky-Unc or paralyzed): Pristionchus pacificus young adults, mean of three biological replicates; for EC50: Pristionchus pacificus, 1 h, read-out: P. pacificus motor disruption EC50
Description: Locomotor phenotype analyses were done in 24-well plates with 1 mL of MYOB substrate (27.5 g Trizma HCl, 12 g Trizma Base, 230 g bacto tryptone, 10 g NaCl, 0.4 g cholesterol (95%)) seeded with 25 µL of OP50 Escherichia coli on each well. Each compound was added to the MYOB substrate before pouring to achieve the desired final concentrations of 30 µM or 60 µM after diffusion through the media. Synchronized young adult worms are transferred into each well using a platinum wire pick. A Leica MZ75 stereomicroscope was used to visualize the movement of worms on the solid substrate. The specific dominant locomotor phenotype (i.e. ‘Punc’, ‘paralyzed’, ‘coiler’ or ‘wild-type locomotion’) was scored after the touch on the head with a platinum wire over a ~3–5 s of observation. […] Coiled animals were not scored as paralyzed despite sometimes not responding to light touch.

[5] = 3.75uM, third c14 line of each analog
[6] = 15uM, second c14 line of each analog
[7] = any motor phenotype after 1 h on solid media, ± 95% CI
[8] = conc 3.75, observed at one hour
[9] = 3.75uM, single replicate counts
[10] = 3.75uM, single technical replicate
[11] = 15uM, single technical replicate
[12] = 60uM, single technical replicate

Compound | % effect (motility), DIROIM L4 ([1]; 10 µM) | % effect (motility), DIROIM L4 ([1]; 50 µM) | any phene (mean % fraction of young adults exhibiting any phenotype: coiled, jerky-Unc or paralyzed) [2, 5] | any phene (mean % fraction of young adults exhibiting any phenotype: coiled, jerky-Unc or paralyzed) [2, 6] | EC50 [2, 7] | % effect (motility), DIROIM MF ([3]; 0.016 µM) | % effect (motility), DIROIM MF ([3]; 0.08 µM) | % effect (motility), DIROIM MF ([3]; 0.4 µM) | % effect (motility), DIROIM MF ([3]; 2 µM) | % effect (motility), DIROIM MF ([3]; 10 µM) | mean % any phene (coiled, jerky-Unc or paralyzed) [4, 8] | mean % any phene (coiled, jerky-Unc or paralyzed) ([4]; conc 15, observed at one hour) | mean % any phene (coiled, jerky-Unc or paralyzed) ([4]; conc 60, observed at one hour) | EC50 [4] | % effect (motility), DIROIM L4 ([1]; 2 µM) | any phene, mean % fraction of young adults exhibiting any phenotype (coiled, jerky-Unc or paralyzed) ([2]; 3.75uM) | atypical locomotion (number of animals) [2, 9] | coiled (number of animals) [2, 9] | no phene (number of animals) [2, 9] | paralyzed (number of animals) [2, 9] | further results
O=[N+]([O-])c1ccc(N2CCN(C3CCCCCCC3)CC2)cc1 [Nemacol-21] | 0% | 0% | 3.333% | 17.5% | 19.6 ± 37.4 µM | 0% | 0% | 0% | 0% | 0% | 0.8333% | 6.667% | 50% | 60 ± 10.2 µM |  |  |  |  |  |  | 
O=[N+]([O-])c1ccc(CN2CCN(C3CCCC3)CC2)cc1 [Nemacol-15] | 0% | 10% |  |  | > 60 µM | 0% | 0% | 0% | 0% | 0% |  |  |  | > 60 µM | 5% | 0% | 0 | 0 | 20 | 0 | any phene, mean % fraction of young adults exhibiting any phenotype (coiled, jerky-Unc or paralyzed) ([2]; 15uM): 2.5%; atypical locomotion (number of animals) ([2]; 15uM, single replicate counts): 0 and 1 and 2; coiled (number of animals) ([2]; 15uM, single replicate counts): 0; no phene (number of animals) ([2]; 15uM, single replicate counts): 20 and 19 and 18; paralyzed (number of animals) ([2]; 15uM, single replicate counts): 0; any phene, mean % fraction of young adults exhibiting any phenotype (coiled, jerky-Unc or paralyzed) ([2]; 60uM): 23.3333%; atypical locomotion (number of animals) ([2]; 60uM, single replicate counts): 2 and 1 and 4 and 5 and 9; coiled (number of animals) ([2]; 60uM, single replicate counts): 0; no phene (number of animals) ([2]; 60uM, single replicate counts): 18 and 19 and 15 and 14 and 11; paralyzed (number of animals) ([2]; 60uM, single replicate counts): 0 and 3 and 2
Fc1ccc(N2CCN(C3CCCCCC3)CC2)cc1 [Nemacol-51] | 0% | 10% |  |  | 4.2 ± 2.3 µM | 0% | 0% | 0% | 0% | 0% | 2.5% | 60% | 85% | 13.2 ± 3 µM |  |  |  |  |  |  | atypical locomotion (number of animals) [2, 10]: 7 and 4 and 2 and 14 and 17; coiled (number of animals) [2, 10]: 0 and 4 and 2; no phene (number of animals) [2, 10]: 13 and 16 and 18 and 2 and 1; paralyzed (number of animals) [2, 10]: 0; atypical locomotion (number of animals) [2, 11]: 13 and 14 and 15 and 6 and 7; coiled (number of animals) [2, 11]: 1 and 3 and 5 and 2 and 8; no phene (number of animals) [2, 11]: 6 and 2 and 3 and 0; paralyzed (number of animals) [2, 11]: 0 and 1 and 6 and 8; any phene: mean % fraction of young adults exhibiting any phenotype (coiled, jerky-Unc or paralyzed) ([2]; 15uM): 89.1667%; atypical locomotion (number of animals) [2, 12]: 3 and 1 and 4 and 0; coiled (number of animals) [2, 12]: 14 and 17 and 11 and 15; no phene (number of animals) [2, 12]: 0; paralyzed (number of animals) [2, 12]: 3 and 2 and 5
FC(F)(F)c1cccc(N2CCN(C3CCCCCCC3)CC2)c1 [Nemacol-55] | 15% | 35% |  |  | 7.9 ± 3.5 µM | 0% | 0% | 0% | 0% | 0% | 5% | 8.333% | 59.1667% | 49.2 ± 6.2 µM |  |  |  |  |  |  | atypical locomotion (number of animals) [2, 10]: 5 and 6 and 2 and 3 and 8; coiled (number of animals) [2, 10]: 0; no phene (number of animals) [2, 10]: 15 and 14 and 18 and 17 and 12; paralyzed (number of animals) [2, 10]: 0; any phene: mean % fraction of young adults exhibiting any phenotype (coiled, jerky-Unc or paralyzed) ([2]; 3.75uM): 26.6667%; atypical locomotion (number of animals) [2, 11]: 11 and 15 and 8 and 9 and 19 and 18; coiled (number of animals) [2, 11]: 1 and 0 and 2; no phene (number of animals) [2, 11]: 8 and 4 and 12 and 11 and 1 and 0; paralyzed (number of animals) [2, 11]: 0 and 1; any phene: mean % fraction of young adults exhibiting any phenotype (coiled, jerky-Unc or paralyzed) ([2]; 15uM): 70%; atypical locomotion (number of animals) [2, 12]: 18 and 17 and 16 and 11 and 15; coiled (number of animals) [2, 12]: 0 and 2 and 5 and 4 and 3; no phene (number of animals) [2, 12]: 0 and 2; paralyzed (number of animals) [2, 12]: 2 and 1 and 0 and 4; any phene: mean % fraction of young adults exhibiting any phenotype (coiled, jerky-Unc or paralyzed) ([2]; 60uM): 96.6667%
N#Cc1ccc(N2CCN(CC3CCCC3)CC2)cc1 [Nemacol-27, 4-(4-(cyclopentylmethyl)piperazin-1-yl)benzonitrile] | 10% | 15% | 0.8333% | 29.1667% | 21.9 ± 8.2 µM | 0% | 0% | 0% | 0% | 0% | 9.167% and 5% | 46.6667% and 3.333% | 88.3333% | 16.4 ± 3.6 µM | 0% |  |  |  |  |  | any phene (mean % fraction of young adults exhibiting any phenotype: coiled, jerky-Unc or paralyzed) ([2]; 60uM, first c14 line of each analog): 91.3333%
CCN1CCN(c2ccc([N+](=O)[O-])cc2)CC1 [Nemacol-8] | 5% | 5% |  |  |  | 0% | 0% | 0% | 0% | 0% | 0% | 48.3333% | 81.6667% | 17.8 ± 3.7 µM | 0% | 0% | 0 | 0 | 20 | 0 | any phene, mean % fraction of young adults exhibiting any phenotype (coiled, jerky-Unc or paralyzed) ([2]; 15uM): 0%; atypical locomotion (number of animals) ([2]; 15uM, single replicate counts): 0; coiled (number of animals) ([2]; 15uM, single replicate counts): 0; no phene (number of animals) ([2]; 15uM, single replicate counts): 20; paralyzed (number of animals) ([2]; 15uM, single replicate counts): 0; any phene, mean % fraction of young adults exhibiting any phenotype (coiled, jerky-Unc or paralyzed) ([2]; 60uM): 28.5965%; atypical locomotion (number of animals) ([2]; 60uM, single replicate counts): 4 and 3 and 1 and 5 and 8; coiled (number of animals) ([2]; 60uM, single replicate counts): 0 and 2 and 1; no phene (number of animals) ([2]; 60uM, single replicate counts): 16 and 17 and 13 and 15 and 11; paralyzed (number of animals) ([2]; 60uM, single replicate counts): 0 and 3 and 2 and 1; EC50 ([2]; 1 h): > 60 µM
